US20240317714A1, “3-[(1H-PYRAZOL-R-YL)OXY]PYRAZIN-2-AMINE COMPOUNDS AS HPK1 INHIBITOR AND USE THEREOF” (BeiGene, Ltd., priority 2020, published 2024)
pIC50: −log10 of the molar value.

Columns and labels:
[1] = target: HPK1 kinase (aal-346. Life Technologies) (Homo sapiens (Human), UniProt Q92918); test: HPK Kinase Activity Assay at 1 mM ATP (TR-FRET); format: biochemical; conditions: HPK1 kinase 40 nM, 0.5 μM STK1 substrate, read-out: Enzymatic activity IC50
[2] = tested on: pSLP76(S376) level in Jurkat cell line; test: Cellular pSLP76(S376) HTRF Assay; format: cell-based; conditions: Homo sapiens, Jurkat, Jurkat cells, 2 h compound treatment, stimulated with 0.05 μg/mL anti-human CD3 (OKT3) for 30 min

HPK1 kinase (aal-346. Life Technologies), sequence (Q92918 1-346): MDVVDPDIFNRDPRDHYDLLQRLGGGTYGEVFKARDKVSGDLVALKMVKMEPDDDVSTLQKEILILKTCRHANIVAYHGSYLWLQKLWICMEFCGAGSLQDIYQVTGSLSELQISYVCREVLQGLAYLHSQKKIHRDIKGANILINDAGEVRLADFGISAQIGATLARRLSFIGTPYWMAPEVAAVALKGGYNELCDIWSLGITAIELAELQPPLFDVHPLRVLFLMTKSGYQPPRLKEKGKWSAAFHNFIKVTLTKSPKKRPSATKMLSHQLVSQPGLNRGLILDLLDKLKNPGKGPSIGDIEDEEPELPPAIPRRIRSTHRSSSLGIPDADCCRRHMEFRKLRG

Structure (SMILES)	pIC50 [1]	pIC50 [2]
Cc1cc(-c2cnc(N)c(Oc3cnn(C4CCN(C)CC4)c3)n2)cc(C2(O)CCCOC2)c1 (stereo not shown) [Example A88, 3-(3-(5-amino-6-((1-(1-methylpiperidin-4-yl)-1H-pyrazol-4-yl)oxy)pyrazin-2-yl)-5-methylphenyl)tetrahydro-2H-pyran-3-ol]	7.47	7.07
Cc1cc(-c2cnc(N)c(Oc3cnn(C4CCN(C)CC4)c3)n2)cc(C2(O)COC2)c1C1=CCOCC1 [Example A86, 3-(5-(5-amino-6-((1-(1-methylpiperidin-4-yl)-1H-pyrazol-4-yl)oxy)pyrazin-2-yl)-2-(3,6-dihydro-2H-pyran-4-yl)-3-methylphenyl)oxetan-3-ol]	7.40	6.89
Cc1cc(-c2cnc(N)c(Oc3cnn(C4CCN(C)CC4)c3)n2)cc(C)c1CNC(=O)NCC(F)(F)F [Example A51, 1-(4-(5-amino-6-((1-(1-methylpiperidin-4-yl)-1H-pyrazol-4-yl)oxy)pyrazin-2-yl)-2,6-dimethylbenzyl)-3-(2,2,2-trifluoroethyl)urea]	7.34	7.00
Cc1cc(-c2cnc(N)c(Oc3cnn(C4CCN(C)CC4)c3)n2)cc(C)c1CNC(=O)NC(C)(C)C [Example A53, 1-(4-(5-amino-6-((1-(1-methylpiperidin-4-yl)-1H-pyrazol-4-yl)oxy)pyrazin-2-yl)-2,6-dimethylbenzyl)-3-(tert-butyl)urea]	7.80	7.20
Cc1cc(-c2cnc(N)c(Oc3cnn(C4CCN(C)CC4)c3)n2)cc(C)c1CNC(=O)NC1(C(F)(F)F)CC1 [Example A64, 1-(4-(5-amino-6-((1-(1-methylpiperidin-4-yl)-1H-pyrazol-4-yl)oxy)pyrazin-2-yl)-2,6-dimethylbenzyl)-3-(1-(trifluoromethyl)cyclopropyl)urea]	7.80	7.35
Cc1cc(-c2cnc(N)c(Oc3cnn(C4CCN(C)CC4)c3)n2)cc(C(=O)NCCN(C)C)c1C [Example A17, 5-(5-amino-6-((1-(1-methylpiperidin-4-yl)-1H-pyrazol-4-yl)oxy)pyrazin-2-yl)-N-(2-(dimethylamino)ethyl)-2,3-dimethylbenzamide]	7.23	6.71
Cc1cc(-c2cnc(N)c(Oc3cnn(C4CCN(C)CC4)c3)n2)cc(C)c1CNC(=O)NC1CCCC1 [Example A37, 1-(4-(5-amino-6-((1-(1-methylpiperidin-4-yl)-1H-pyrazol-4-yl)oxy)pyrazin-2-yl)-2,6-dimethylbenzyl)-3-cyclopentylurea]	7.77	7.01
Cc1cc(-c2cnc(N)c(Oc3cnn(C4CCN(C)CC4)c3)n2)cc(C)c1C(=O)NCCN(C)C [Example A1, 4-(5-amino-6-((1-(1-methylpiperidin-4-yl)-1H-pyrazol-4-yl)oxy)pyrazin-2-yl)-N-(2-(dimethylamino)ethyl)-2,6-dimethylbenzamide]	7.33	7.03
CCNC(=O)NCc1c(C)cc(-c2cnc(N)c(Oc3cnn(C4CCN(C)CC4)c3)n2)cc1C [Example A36, 1-(4-(5-amino-6-((1-(1-methylpiperidin-4-yl)-1H-pyrazol-4-yl)oxy)pyrazin-2-yl)-2,6-dimethylbenzyl)-3-ethylurea]	7.66	7.27
CNS(=O)(=O)c1cc(-c2cnc(N)c(Oc3cnn(C4CCN(C)CC4)c3)n2)cc(N2CCC[C@H]2C)c1 [Example A43, (R)-3-(5-amino-6-((1-(1-methylpiperidin-4-yl)-1H-pyrazol-4-yl)oxy)pyrazin-2-yl)-N-methyl-5-(2-methylpyrrolidin-1-yl)benzenesulfonamide]	8.22	7.59
CNS(=O)(=O)c1cc(-c2cnc(N)c(Oc3cnn(C4CCN(C)CC4)c3)n2)cc(C)c1C [Example A8, 5-(5-amino-6-((1-(1-methylpiperidin-4-yl)-1H-pyrazol-4-yl)oxy)pyrazin-2-yl)-N,2,3-trimethylbenzemesulfonamide]	8.10	7.52
C[C@@H]1COCCN1c1cc(-c2cnc(N)c(Oc3cnn(C4CCN(C)CC4)c3)n2)cc(C2(O)COC2)c1 [Example A59, (R)-3-(3-(5-amino-6-((1-(1-methylpiperidin-4-yl)-1H-pyrazol-4-yl)oxy)pyrazin-2-yl)-5-(3-methylmorpholino)phenyl)oxetan-3-ol]	8.09	7.29
C[C@@H]1COCCN1c1cc(-c2cnc(N)c(Oc3cnn(C4CCN(C)CC4)c3)n2)cc(C(C)(C)O)n1 [Example B3, (R)-2-(4-(5-amino-6-((1-(1-methylpiperidin-4-yl)-1H-pyrazol-4-yl)oxy)pyrazin-2-yl)-6-(3-methylmorpholino)pyridin-2-yl)propan-2-ol]	7.96	6.64
Cc1cc(-c2cnc(N)c(Oc3cnn(C4CCN(C)CC4)c3)n2)cc(C2(O)CCOC2)c1 (stereo not shown) [Example A69, 3-(3-(5-amino-6-((1-(1-methylpiperidin-4-yl)-1H-pyrazol-4-yl)oxy)pyrazin-2-yl)-5-methylphenyl)tetrahydrofuran-3-ol]	7.24	7.08
CNS(=O)(=O)c1cc(-c2cnc(N)c(Oc3cnn(C4CCN(C)CC4)c3)n2)cc(N2CCOC[C@H]2C)c1 [Example A49, (R)-3-(5-amino-6-((1-(1-methylpiperidin-4-yl)-1H-pyrazol-4-yl)oxy)pyrazin-2-yl)-N-methyl-5-(3-methylmorpholino)benzenesulfonamide]	7.96	7.09
CNS(=O)(=O)c1cc(OC(C)C)cc(-c2cnc(N)c(Oc3cnn(C4CCN(C)CC4)c3)n2)c1 [Example A16, 3-(5-amino-6-((1-(1-methylpiperidin-4-yl)-1H-pyrazol-4-yl)oxy)pyrazin-2-yl)-5-isopropoxy-N-methylbenzenesulfonamide; formic acid]	7.74	7.10
C[C@@H]1COCCN1c1cc(-c2cnc(N)c(Oc3cnn(C4CCN(C)CC4)c3)n2)cc([C@@]2(O)CCOC2)c1 [Example A80A, (S)-3-(3-(5-amino-6-((1-(1-methylpiperidin-4-yl)-1H-pyrazol-4-yl)oxy)pyrazin-2-yl)-5-((R)-3-methylmorpholino)phenyl)tetrahydrofuran-3-ol]	7.54	6.71
Cc1cc(-c2cnc(N)c(Oc3cnn(C4CCN(C)CC4)c3)n2)cc(S(=O)(=O)NCCC#N)c1 [Example A10, 3-(5-amino-6-((1-(1-methylpiperidin-4-yl)-1H-pyrazol-4-yl)oxy)pyrazin-2-yl)-N-(2-cyanoethyl)-5-methylbenzenesulfonamide]	7.36	6.93
CCN1CCC(n2cc(Oc3nc(-c4cc(C)cc(S(=O)(=O)NC)c4)cnc3N)cn2)CC1 [Example A27, 3-(5-amino-6-((1-(1-ethylpiperidin-4-yl)-1H-pyrazol-4-yl)oxy)pyrazin-2-yl)-N,5-dimethylbenzenesulfonamide]	7.24	7.09
CN1CCC(n2cc(Oc3nc(-c4cc(C5CCOCC5)cc(C5(O)COC5)c4)cnc3N)cn2)CC1 [Example A79, 3-(3-(5-amino-6-((1-(1-methylpiperidin-4-yl)-1H-pyrazol-4-yl)oxy)pyrazin-2-yl)-5-(tetrahydro-2H-pyran-4-yl)phenyl)oxetan-3-ol]	7.92	7.15
